Reference: US8063067B2, “Hexenoic acid derivatives, processes for the preparation thereof, pharmaceutical compositions comprising them, and therapeutic applications thereof” (Merck Patent GmbH, priority 2004, dated 2011)
Marks after values point to notes of the source that are not given here.

Legend:
db/db mice = experiment: Antidiabetic and hypolipidaemiant activity, oral, db/db mice; format: in vivo; conditions: oral 100 mg/kg/day
Protocol: The antidiabetic and hypolipidaemiant activity of the compounds was determined orally on db/db mice
17-week-old db/db mice are treated orally for 15 days with the compound of Example 2 (100 mg/kg/day). Each group studied comprises seven animals. After treatment for 15 days, retro-orbital samples are taken under mild anaesthesia and after fasting for four hours.
The following parameters were measured:
Assay of the glycaemia (glucose oxidase) and of the lipid parameters on the sera at D15 (COBAS): triglycerides, total cholesterol (CHOL), HDL cholesterol (HDL-C) and free fatty acids (FFA) (BioMérieux and Waco Chemicals assay kit).
The measurements reported represent mean values±standard error.

[1] = target: T1, chimeric protein PPARα-Gal4 (Homo sapiens, UniProt Q07869); experiment: PPARα-Gal4 chimera luciferase reporter transactivation in co-transfected CV-1 cells; format: cell-based; conditions: CV-1 cells (monkey kidney cells), 18 hours contact, fold relative to control cells without product
T1 construct: expressed in transfected cells; host or cells: CV-1 cells (monkey kidney cells)
T1 sequence (Q07869 239-466 limits assumed): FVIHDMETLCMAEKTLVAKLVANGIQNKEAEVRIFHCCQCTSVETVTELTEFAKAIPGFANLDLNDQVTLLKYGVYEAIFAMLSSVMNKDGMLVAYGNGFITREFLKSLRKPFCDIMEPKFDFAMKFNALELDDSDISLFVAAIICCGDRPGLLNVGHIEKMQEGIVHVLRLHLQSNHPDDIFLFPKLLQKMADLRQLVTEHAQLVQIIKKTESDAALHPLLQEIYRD
Protocol: (§1) The measurement of the PPAR activation was performed according to a technique described by Lehmann et al. (J. Biol. Chem., 270, (1995), 12953-12956).
(§2) CV-1 cells (monkey kidney cells) are co-transfected with an expression vector for the chimeric proteins PPARα-Gal4 or PPARγ-Gal4 and with a “reporter” plasmid that allows the expression of the luciferase gene placed under the control of a promoter comprising Gal4 response elements.
(§3) The cells are plated into 96-well microplates and co-transfected using a commercial reagent with the reporter plasmid (pG5-tk-pGL3) and the expression vector for the chimeric protein (PPARα-Gal4 or PPARγ-Gal4). After incubating for 4 hours, whole culture medium (comprising 10% foetal calf serum) is added to the wells. After 24 hours, the medium is removed and replaced with whole medium comprising the test products (50 μM, 25 μM and 12.5 μM final). The products are left in contact with the cells for 18 hours. The cells are then lysed and the luciferase activity is measured using a luminometer. A PPAR activation factor can then be calculated by means of activation of the expression of the reporter gene induced by the product (relative to the control cells that have not received any product).

Gal4 alone = target: T2, Gal4 alone (Saccharomyces cerevisiae, UniProt P04386); experiment: Luciferase reporter control with vector expressing Gal4 alone (no PPAR ligand binding domain); format: cell-based; conditions: CV-1 cells
T2 construct: expressed in transfected cells; host or cells: CV-1 cells (monkey kidney cells)
T2 sequence (P04386 whole entry, the tested form may be a part): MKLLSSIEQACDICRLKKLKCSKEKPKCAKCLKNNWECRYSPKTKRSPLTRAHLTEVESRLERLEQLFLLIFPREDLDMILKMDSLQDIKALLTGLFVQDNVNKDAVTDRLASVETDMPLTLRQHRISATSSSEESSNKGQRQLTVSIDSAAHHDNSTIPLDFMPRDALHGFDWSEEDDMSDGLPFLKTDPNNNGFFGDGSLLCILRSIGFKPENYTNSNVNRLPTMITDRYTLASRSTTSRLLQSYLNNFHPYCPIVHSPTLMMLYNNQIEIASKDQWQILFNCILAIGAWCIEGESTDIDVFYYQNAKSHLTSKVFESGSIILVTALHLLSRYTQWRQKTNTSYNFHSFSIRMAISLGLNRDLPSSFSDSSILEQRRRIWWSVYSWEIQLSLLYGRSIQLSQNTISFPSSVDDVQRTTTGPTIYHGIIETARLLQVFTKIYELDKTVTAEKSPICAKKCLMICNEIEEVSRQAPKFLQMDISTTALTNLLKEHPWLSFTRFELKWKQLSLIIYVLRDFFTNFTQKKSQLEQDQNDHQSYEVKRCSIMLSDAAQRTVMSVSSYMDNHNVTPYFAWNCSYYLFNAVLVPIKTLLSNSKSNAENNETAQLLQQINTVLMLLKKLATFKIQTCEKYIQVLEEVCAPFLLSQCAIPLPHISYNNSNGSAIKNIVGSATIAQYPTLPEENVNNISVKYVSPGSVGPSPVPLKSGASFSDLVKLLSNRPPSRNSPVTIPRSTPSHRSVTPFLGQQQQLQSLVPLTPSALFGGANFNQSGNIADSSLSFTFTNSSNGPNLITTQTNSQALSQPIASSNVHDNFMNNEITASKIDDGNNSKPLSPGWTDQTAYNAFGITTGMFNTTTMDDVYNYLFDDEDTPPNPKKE
Protocol: CV-1 cells (monkey kidney cells) are co-transfected with an expression vector for the chimeric proteins PPARα-Gal4 or PPARγ-Gal4 and with a “reporter” plasmid that allows the expression of the luciferase gene placed under the control of a promoter comprising Gal4 response elements. The cells are plated into 96-well microplates and co-transfected using a commercial reagent with the reporter plasmid (pG5-tk-pGL3) and the expression vector for the chimeric protein (PPARα-Gal4 or PPARγ-Gal4). After incubating for 4 hours, whole culture medium (comprising 10% foetal calf serum) is added to the wells. After 24 hours, the medium is removed and replaced with whole medium comprising the test products (50 μM, 25 μM and 12.5 μM final). The products are left in contact with the cells for 18 hours. The cells are then lysed and the luciferase activity is measured using a luminometer. A PPAR activation factor can then be calculated by means of activation of the expression of the reporter gene induced by the product (relative to the control cells that have not received any product). […] In the absence of the binding domain for the PPAR α or γ ligand (vector expressing Gal4 alone), the luciferase activity measured in the presence of this product is zero.

[2] = target: T3, chimeric protein PPARγ-Gal4 (Homo sapiens, UniProt P37231); experiment: PPARγ-Gal4 chimera luciferase reporter transactivation in co-transfected CV-1 cells; format: cell-based; conditions: CV-1 cells (monkey kidney cells), 18 hours contact, fold relative to control cells without product
T3 construct: expressed in transfected cells; host or cells: CV-1 cells (monkey kidney cells)
T3 sequence (P37231 238-503 limits assumed): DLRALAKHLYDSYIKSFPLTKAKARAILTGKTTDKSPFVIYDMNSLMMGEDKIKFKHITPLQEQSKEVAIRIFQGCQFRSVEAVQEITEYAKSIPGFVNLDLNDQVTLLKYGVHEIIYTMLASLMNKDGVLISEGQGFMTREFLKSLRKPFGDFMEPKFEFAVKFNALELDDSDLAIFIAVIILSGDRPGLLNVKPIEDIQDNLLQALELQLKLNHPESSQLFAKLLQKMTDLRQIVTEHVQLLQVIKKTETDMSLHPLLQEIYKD
Protocol: as §1, §2, §3

[3] = 15 days, p < 0.05 versus control
[4] = serum at D15, mean ± standard error

O=C(O)C(CCC1=CCCCC1)Oc1ccc(C(F)(F)F)cc1 (stereo not shown) [Example 2, 4-cyclohex-1-enyl-2-[4-(trifluoromethyl)phenoxy]butanoic acid]
Glycaemia (db/db mice; 15 days, fasted four hours, mean ± standard error): 23.23 ± 5.43 mM
CHOL, % var. (percentage of variation versus control) (db/db mice; 15 days, not significant): +28% ns
FFA, % var. (percentage of variation versus control) (db/db mice; 15 days, p < 0.01 versus control): −34% **
Glycaemia, % var. (percentage of variation versus control) (db/db mice; [3]): −26% *
HDL-C, % var. (percentage of variation versus control) (db/db mice; [3]): +21% *
Triglycerides, % var. (percentage of variation versus control) (db/db mice; [3]): −55% *
CHOL (total cholesterol) (db/db mice; [4]): 6.04 ± 0.61 mM
FFA (free fatty acids) (db/db mice; [4]): 0.48 ± 0.12 mM
HDL-C (db/db mice; [4]): 4.26 ± 0.61 mM
Triglycerides (db/db mice; [4]): 1.05 ± 0.29 mM
melting point: 109 to 111 °C
PPAR activation factor, Chimer α ([1]; 12.5 μM): 3.6
PPAR activation factor, Chimer α ([1]; 25 μM): 17.2
PPAR activation factor, Chimer α ([1]; 50 μM): 24.9
luciferase activity in the absence of the binding domain for the PPAR α or γ ligand (Gal4 alone): zero
PPAR activation factor, Chimer γ ([2]; 12.5 μM): 2.2
PPAR activation factor, Chimer γ ([2]; 25 μM): 5.2
PPAR activation factor, Chimer γ ([2]; 50 μM): 9.3

C=CCCC(Oc1ccc(-c2ccc(OC)cc2)cc1)C(=O)O (stereo not shown) [Example 8]
melting point: 128 to 130 °C

O=C(O)C(CCC1=CCCCC1)Oc1ccc2oc3ccccc3c2c1 (stereo not shown) [Example 10]
melting point: 142 to 144 °C

O=C(O)C(CCC1=CCCC1)Oc1ccc2oc3ccccc3c2c1 (stereo not shown) [Example 11]
melting point: 140 to 142 °C

C=CCCC(Oc1ccc(-c2ccc(F)cc2)cc1)C(=O)O (stereo not shown) [Example 12]
melting point: 97 °C
PPAR activation factor, Chimer α ([1]; 12.5 μM): 4.3
PPAR activation factor, Chimer α ([1]; 25 μM): 13.1
PPAR activation factor, Chimer α ([1]; 50 μM): 19.9
PPAR activation factor, Chimer γ ([2]; 12.5 μM): 1
PPAR activation factor, Chimer γ ([2]; 25 μM): 3.4
PPAR activation factor, Chimer γ ([2]; 50 μM): 15.6

O=C(O)C(CCC1=CCCCC1)Oc1ccc(Cl)cc1 (stereo not shown) [Example 13]
PPAR activation factor, Chimer α ([1]; 12.5 μM): 6
PPAR activation factor, Chimer α ([1]; 25 μM): 4.8
PPAR activation factor, Chimer α ([1]; 50 μM): 12.5
PPAR activation factor, Chimer γ ([2]; 12.5 μM): 7.2
PPAR activation factor, Chimer γ ([2]; 25 μM): 5.3
PPAR activation factor, Chimer γ ([2]; 50 μM): 8.5

C=CCCC(Oc1ccc(-c2ccc(Cl)cc2)cc1)C(=O)O (stereo not shown) [Example 16]
melting point: 127 °C

C=CCCC(Oc1ccc(C(=O)c2ccc(Cl)cc2)cc1)C(=O)O (stereo not shown) [Example 17]
melting point: 141 °C

O=C(O)C(CCC1=CCCCC1)Oc1ccc(-c2cc3ccccc3s2)cc1 (stereo not shown) [Example 18]
melting point: 171 to 174 °C

O=C(O)C(CCC1=CCCCC1)Oc1ccc(-c2ccc(F)cc2)cc1 (stereo not shown) [Example 19]
melting point: 156 to 158 °C

C=CCCC(Oc1ccc(C(F)(F)F)cc1)C(=O)O (stereo not shown) [Example 86]
melting point: 70 °C

C=CCCC(Oc1ccc(Oc2ccccc2)cc1)C(=O)O (stereo not shown) [Example 87]
melting point: 61 °C

C=CCCC(Oc1cccc(OCc2ccc3ccccc3n2)c1)C(=O)O (stereo not shown) [Example 88]
melting point: 125 °C

C=CCCC(Oc1ccc(-c2csc(C)n2)cc1)C(=O)O (stereo not shown) [Example 89]
melting point: 120 °C

C=CCCC(Oc1ccc(-c2cc(C)ccc2C)cc1)C(=O)O (stereo not shown) [Example 90]
melting point: 95 to 98 °C

C=CCCC(Oc1ccc(C(=O)/C=C/c2ccccc2)cc1)C(=O)O (stereo not shown) [Example 92]
melting point: 125 °C

C=CCCC(Oc1ccc(-c2csc3ccccc23)cc1)C(=O)O (stereo not shown) [Example 93]
melting point: 98 °C

C=CCCC(Oc1ccc(-c2cc3ccccc3s2)cc1)C(=O)O (stereo not shown) [Example 94]
melting point: 183 °C

C=CCCC(Oc1ccc(-c2ccc(OC(F)(F)F)cc2)cc1)C(=O)O (stereo not shown) [Example 95]
melting point: 115 to 116 °C

C=CCCC(Oc1ccc(-c2cccc(F)c2)cc1)C(=O)O (stereo not shown) [Example 97]
melting point: 110 °C

C=CCCC(Oc1ccc(-c2ccc(F)c(F)c2)cc1)C(=O)O (stereo not shown) [Example 98]
melting point: 70 to 72 °C
